According to patent US20050239656A1, “Pyridine compounds or salts thereof and herbicides containing the same” (priority 2002, published 2005):

Columns and labels:
[1] = system: green foxtail; experiment: Test Example 2: soil surface treatment, upland pot test; assay type: in vivo, Setaria viridis L.; conditions: active ingredient 1000 g/ha, observed 20th to 28th day
How it was run: (§1)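 Readout was visual percent growth control (0 matching untreated, 100 complete kill) at days 20–28. Compound, as emulsifiable concentrate or wettable powder at a preset active-ingredient rate in 1,500 L/ha water, was sprayed onto sown upland soil one day after sowing.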

[2] = system: barnyardgrass; experiment: Test Example 3: paddy pot test, application under submerged conditions; assay type: in vivo, Echinochloa crus-galli L.; conditions: submerged application at 0.5 leaf stage, visually observed 14 days after application, 0 = non-treated, 100 = complete kill
How it was run: (§2)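 After sowing seeds and planting wapato tubers in flooded paddy soil, an aqueous dilution of the formulated compound was added to the 3–4 cm flood water at early leaf stage. Percent growth control relative to the untreated plot was assessed visually on day 14.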

[3] = system: crabgrass; experiment: Test Example 2: soil surface treatment, upland pot test; assay type: in vivo, Digitaria sanguinalis L.; conditions: active ingredient 1000 g/ha, observed 20th to 28th day
How it was run: as §1

[4] = system: redroot pigweed; experiment: as above; assay type: in vivo, Amaranthus retroflexus L.; conditions: active ingredient 1000 g/ha, observed 20th to 28th day
How it was run: as §1

[5] = system: corn; experiment: Test Example 1: foliage treatment, upland pot test; assay type: in vivo, Zea mays L.; conditions: crop, active ingredient 1000 g/ha, observed 18th to 23rd day, 0 = non-treated, 100 = complete kill
How it was run: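 In this upland pot foliage test, corn plants at 2.1 to 3.2 leaf stages were sprayed by a small size sprayer. The spray was a conventionally formulated wettable powder or emulsifiable concentrate weighed to a set active ingredient amount, diluted in water at 500 L/ha, plus 0.1% (v/v) agricultural spreader. Visual assessment on days 18 to 23 gave growth controlling degree (%), where 0 equals untreated and 100 means complete kill.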

[6] = system: green foxtail; experiment: Test Example 1: foliage treatment, upland pot test; assay type: in vivo, Setaria viridis L.; conditions: active ingredient 1000 g/ha, observed 18th to 23rd day, 0 = non-treated, 100 = complete kill
[7] = system: prickly sida; experiment: Test Example 2: soil surface treatment, upland pot test; assay type: in vivo, Sida spinosa L.; conditions: active ingredient 1000 g/ha, observed 20th to 28th day
How it was run: as §1

[8] = system: soybean; experiment: Test Example 1: foliage treatment, upland pot test; assay type: in vivo, Glycine max Merr.; conditions: crop, active ingredient 1000 g/ha, observed 18th to 23rd day, 0 = non-treated, 100 = complete kill
How it was run: (§3)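 Pots of upland field soil were sown and sprayed post-emergence at soybean 0.1–0.4, wheat 1.3–2.4, rice 1.2–2.6 and barnyardgrass 1.3–2.8 leaf stages. Formulations were diluted in water at 500 L/ha with 0.1% (v/v) spreader. Growth control (0 = untreated, 100 = complete kill) was judged by eye 18–23 days later.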

[9] = system: redroot pigweed; experiment: Test Example 1: foliage treatment, upland pot test; assay type: in vivo, Amaranthus retroflexus L.; conditions: active ingredient 1000 g/ha, observed 18th to 23rd day, 0 = non-treated, 100 = complete kill
[10] = system: tall morningglory; experiment: Test Example 1: foliage treatment, upland pot test; assay type: in vivo, Ipomoea purpurea L.; conditions: active ingredient 1000 g/ha, observed 18th to 23rd day, 0 = non-treated, 100 = complete kill
Description: Upland field soil was put into a 1/170,000 ha pot, and seed of various plants were sown. Then, when the plants reached predetermined leaf stages ((1) barnyardgrass: 1.3 to 2.8 leaf stages, (2) crabgrass: 1.0 to 2.8 leaf stages, (3) green foxtail: 1.3 to 2.6 leaf stages, (4) redroot pigweed: 0.1 to 1.2 leaf stages, (5) prickly sida: 0.1 to 1.2 leaf stages, (6) velvetleaf: 0.1 to 1.2 leaf stages, (7) tall morningglory: 0.1 to 1.5 leaf stages, (8) rice: 1.2 to 2.6 leaf stages, (9) wheat: 1.3 to 2.4 leaf stages, (10) corn, 2.1 to 3.2 leaf stages, (11) soybean: 0.1 to 0.4 leaf stage), a wettable powder or emulsifiable concentrate having the compound of the present invention formulated in accordance with a usual formulation method, was weighed so that the active ingredient would be a predetermined amount, and diluted with water in an amount of 500 L/ha. To the diluted solution, 0.1% (v/v) of agricultural spreader was added. The herbicide thus adjusted was applied by a small size sprayer for foliage treatment. On the 18th to 23rd days after the application of the herbicide, the growth of the respective plants was visually observed, and the herbicidal effects were evaluated by the growth controlling degrees (%) ranging from 0 (equivalent to the non-treated plot) to 100 (complete kill), whereby the results shown in Table 3, were obtained.

[11] = system: barnyardgrass; experiment: Test Example 1: foliage treatment, upland pot test; assay type: in vivo, Echinochloa crus-galli L.; conditions: active ingredient 1000 g/ha, observed 18th to 23rd day, 0 = non-treated, 100 = complete kill
How it was run: as §3

[12] = system: corn; experiment: Test Example 2: soil surface treatment, upland pot test; assay type: in vivo, Zea mays L.; conditions: active ingredient 1000 g/ha, observed 20th to 28th day
How it was run: as §1

[13] = system: wheat; experiment: as above; assay type: in vivo, Triticum spp.; conditions: active ingredient 1000 g/ha, observed 20th to 28th day
How it was run: as §1

[14] = system: japanese ribbon wapato; experiment: Test Example 3: paddy pot test, application under submerged conditions; assay type: in vivo, Sagittaria pygniaea; conditions: submerged application at primary leaf stage, visually observed 14 days after application, 0 = non-treated, 100 = complete kill
How it was run: as §2

[15] = system: velvetleaf; experiment: Test Example 1: foliage treatment, upland pot test; assay type: in vivo, Abutilon theophrasti MEDIC.; conditions: active ingredient 1000 g/ha, observed 18th to 23rd day, 0 = non-treated, 100 = complete kill
[16] = system: prickly sida; experiment: Test Example 1: foliage treatment, upland pot test; assay type: in vivo, Sida spinosa L.; conditions: active ingredient 1000 g/ha, observed 18th to 23rd day, 0 = non-treated, 100 = complete kill
[17] = system: soybean; experiment: Test Example 2: soil surface treatment, upland pot test; assay type: in vivo, Glycine max Merr.; conditions: active ingredient 1000 g/ha, observed 20th to 28th day
How it was run: as §1

[18] = system: barnyardgrass; experiment: as above; assay type: in vivo, Echinochloa crus-galli L.; conditions: active ingredient 1000 g/ha, observed 20th to 28th day, 0 = non-treated, 100 = complete kill
How it was run: as §1

[19] = system: wheat; experiment: Test Example 1: foliage treatment, upland pot test; assay type: in vivo, Triticum spp.; conditions: crop, active ingredient 1000 g/ha, observed 18th to 23rd day, 0 = non-treated, 100 = complete kill
How it was run: as §3

[20] = system: crabgrass; experiment: Test Example 1: foliage treatment, upland pot test; assay type: in vivo, Digitaria sanguinalis L.; conditions: active ingredient 1000 g/ha, observed 18th to 23rd day, 0 = non-treated, 100 = complete kill
[21] = system: rice; experiment: Test Example 2: soil surface treatment, upland pot test; assay type: in vivo, Oryza sativa L.; conditions: active ingredient 1000 g/ha, observed 20th to 28th day
How it was run: as §1

[22] = system: velvetleaf; experiment: as above; assay type: in vivo, Abutilon theophrasti MEDIC.; conditions: active ingredient 1000 g/ha, observed 20th to 28th day
How it was run: as §1

[23] = system: rice; experiment: Test Example 1: foliage treatment, upland pot test; assay type: in vivo, Oryza sativa L.; conditions: crop, active ingredient 1000 g/ha, observed 18th to 23rd day, 0 = non-treated, 100 = complete kill
How it was run: as §3

[24] = system: japanese bulrush; experiment: Test Example 3: paddy pot test, application under submerged conditions; assay type: in vivo, Scirpus juncoides; conditions: submerged application at 0.5 leaf stage, visually observed 14 days after application, 0 = non-treated, 100 = complete kill
How it was run: as §2

[25] = system: rice (var. Nihonbare); experiment: Test Example 3: paddy pot test, transplanted rice; assay type: in vivo, Oryza sativa L.; conditions: applied 4th day after transplantation, visually observed 21st day after application, 0 = non-treated, 100 = complete kill
How it was run: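 Rice (2-leaf stage) was transplanted 3 cm deep into puddled, leveled paddy soil under 3–4 cm flooding. On day 4 after transplanting, diluted wettable powder or emulsifiable concentrate was pipetted onto the water at a predetermined active-ingredient dose. Growth control (0 = untreated, 100 = complete kill) was scored visually 21 days later.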

| SMILES | Growth controlling degree (%) Green foxtail [1] | Growth controlling degree (%) Crabgrass [3] | Growth controlling degree (%) Redroot pigweed [4] | Growth controlling degree (%) Corn [5] | Growth controlling degree (%) Green foxtail [6] | Growth controlling degree (%) Prickly sida [7] | Growth controlling degree (%) Soybean [8] | Growth controlling degree (%) Redroot pigweed [9] | Growth controlling degree (%) Tall morningglory [10] | Growth controlling degree (%) Barnyardgrass [11] | Growth controlling degree (%) Corn [12] | Growth controlling degree (%) wheat [13] | Growth controlling degree (%) Velvetleaf [15] | Growth controlling degree (%) Prickly sida [16] | Growth controlling degree (%) Soyabean [17] | Growth controlling degree (%) Barnyardgrass [18] | Growth controlling degree (%) wheat [19] | Growth controlling degree (%) Crabgrass [20] | Growth controlling degree (%) Rice [21] | Growth controlling degree (%) Velvetleaf [22] | other results |
| --- | --- | --- | --- | --- | --- | --- | --- | --- | --- | --- | --- | --- | --- | --- | --- | --- | --- | --- | --- | --- | --- |
| CC(C)C(c1cnccc1C(F)(F)F)N(C)C(=O)Cc1cccc(Br)c1 (stereo not drawn) [I-16] | 100% | 100% | 95% | 0% | 70% | 80% | 70% | 80% | 80% | 70% | 30% | 30% | 80% | 80% | 0% | 98% | 40% | 80% | 30% | 60% | Growth controlling degree (%) Barnyardgrass ([2]; active ingredient 250 g/ha): 100%; Growth controlling degree (%) Japanese ribbon wapato ([14]; active ingredient 250 g/ha): 30%; Growth controlling degree (%) Rice [23]: 10%; Growth controlling degree (%) Japanese bulrush ([24]; active ingredient 250 g/ha): 90%; Growth controlling degree (%) Rice ([25]; active ingredient 250 g/ha): 10% |
| CCC(=O)N(C)C(c1cnccc1C(F)(F)F)c1cccc2ccccc12 (stereo not drawn) [I-43] | 98% | 100% | 60% | 10% | 70% | 70% | 10% | 70% | 90% | 70% | 30% | 40% | 95% | 80% | 10% | 90% | 10% | 90% | 10% | 0% | Growth controlling degree (%) Barnyardgrass ([2]; active ingredient 500 g/ha): 100%; Growth controlling degree (%) Japanese ribbon wapato ([14]; active ingredient 500 g/ha): 90%; Growth controlling degree (%) Rice [23]: 10%; Growth controlling degree (%) Japanese bulrush ([24]; active ingredient 500 g/ha): 100%; Growth controlling degree (%) Rice ([25]; active ingredient 500 g/ha): 35% |
| CCC(=O)N(CC)C(c1cnccc1C(F)(F)F)c1cccc2ccccc12 (stereo not drawn) [I-44] | 100% | 90% | 0% | 10% | 70% | 0% | 50% | 70% | 90% | 60% | 10% | 40% | 95% | 80% | 0% | 80% | 20% | 80% | 40% | 0% | Growth controlling degree (%) Barnyardgrass ([2]; active ingredient 500 g/ha): 90%; Growth controlling degree (%) Japanese ribbon wapato ([14]; active ingredient 500 g/ha): 100%; Growth controlling degree (%) Rice [23]: 10%; Growth controlling degree (%) Japanese bulrush ([24]; active ingredient 500 g/ha): 95%; Growth controlling degree (%) Rice ([25]; active ingredient 500 g/ha): 30% |
